# Assays:
# [1] = tested on: human Rhinovirus (HRV); experiment: In vivo Study II: human volunteers pre-treated with CLA, intranasal human Rhinovirus challenge, Jackson Score
# Method: The following protocol was used in all of Examples 4 to 10.
# 76 human volunteers suffering from the common cold were used in the study. 43 subjects were administered conjugated linoleic acid (CLA) and the other 33 subjects were given a placebo. The CLA used contained a 40:60 mixture of cis9, trans11: trans10, cis12 isomers.
# The 43 subjects underwent pre-treatment with CLA at a level of 2 g/day for 4 weeks. 33 subjects underwent pre-treatment with placebo (HOSF; high oleic sunflower […]).
# (§1) All subjects were inoculated at day 0 by intranasal exposure to human Rhinovirus (HRV) and the two groups were monitored daily for the next 5 days. The effects of the two types of treatment were determined by using the Jackson Score (validated in severity of symptoms) and the effects of the symptoms on its own on day 0-5.
# Symptoms were assessed using a Jackson Score validated in severity from 0=absent to 3=very severe.
# [2] = tested on: human Rhinovirus (HRV); experiment: In vivo study: human volunteers pre-treated with CLA, intranasal human Rhinovirus challenge, Jackson Score; settings: CLA 1.7 g/day for 4 weeks pre-treatment
# Method: 45 human volunteers suffering from the common cold were used in the study. 21 subjects were administered conjugated linoleic acid (CLA) and the other 24 subjects were given a placebo.
# The 21 subjects underwent pre-treatment with CLA at a level of 1.7 g/day for 4 weeks. 24 subjects underwent pre-treatment with placebo (HOSF; high oleic sunflower […]).
# as §1
# Symptoms were assessed using a Jackson Score validated in severity from 0=absent to 3=very severe. The following symptoms were rated:
# The primary endpoint for the study was the frequency of clinical colds defined in accordance with the modified Jackson criteria.
# Total symptoms of the individuals were checked in the morning (am) and in the afternoon (pm). The results of the test in the afternoon are shown in FIG. 2 and the results of the test in the morning are shown in FIG. 3; both plots are of Total Symptom Score against number of days. In FIGS. 2 and 3, results for the group of people treated with CLA are shown on the left in grey (Series 1) and for people given the placebo are shown on the right in dark grey (Series 2).
# The symptoms assessed were sneezing, runny nose, obstruction, stuffiness, sore throat, cough, headache, malaise and chilliness. The total symptom score was determined by adding the scores for the symptoms during the 5 day period. FIG. 4 is a graph showing total symptom score and individual symptoms for the CLA group (light grey bars) and the placebo group (dark grey bars).
# [3] = CLA 2 g/day for 4 weeks pre-treatment
substance,measurement,setting,value
conjugated linoleic acid [CLA],reduction in Jackson cold severity versus placebo,[1]; [3],about 12%
same,reduction in total Jackson score over 5 days versus placebo,[1]; [3],about 7%
same,average total Jackson score over 5 days,"[1]; CLA 2 g/day for 4 weeks pre-treatment, AM and PM, five days post inoculation, placebo 9.30",8.72
same,total runny nose score in 5 days,"[1]; CLA 2 g/day for 4 weeks pre-treatment, ranking 1-3, AM and PM, five days, placebo 2.14",2.025
same,total sneezing score in 5 days,"[1]; CLA 2 g/day for 4 weeks pre-treatment, ranking 1 to 3, AM and PM, five days, placebo 1.2",0.5
same,total sore throat score for 5 days,"[1]; CLA 2 g/day for 4 weeks pre-treatment, ranking 1 to 3, AM and PM, five days, placebo 3.1",2.5
same,total symptom score over 5 days,"[1]; CLA 2 g/day for 4 weeks pre-treatment, sum of symptom scores during 5 day period, placebo 12.1",11.3
same,"Jackson cold severity, average score","[1]; CLA 2 g/day for 4 weeks pre-treatment, total score (from 10), AM and PM, five days post inoculation, placebo 1.09",0.975
same,volunteers not infected,"[1]; CLA (40:60 cis9,trans11:trans10,cis12) 2 g/day for 4 weeks pre-treatment, all placebo volunteers infected",Seven out of the 43
same,severity of the common cold (Jackson Score) versus placebo,"[2]; at day 2 after HRV inoculation, FIG. 1",lower
same,total symptom score (am and pm) versus placebo,"[2]; day 2 until the end of the study, FIGS. 2 and 3",lower
same,severity of the symptoms assessed separately versus placebo,"[2]; scores added over 5 day period, FIG. 4",very clearly lower

# From patent US20050038118A1, “Treatment” (priority 2003, published 2005)
